Earlier results as cited in patent publication US20030114475A1, “Methods for the treatment of addiction” (Addiction Therapies, Inc., priority 2001, published 2003).

What was measured:
[1] = in vivo
[2] = in vivo; remark: listed apart in the source
dopamine transporter = dopamine transporter (Homo sapiens, UniProt Q01959)
[3] = test system: cocaine self-administration

dopamine transporter, sequence (Q01959 whole entry): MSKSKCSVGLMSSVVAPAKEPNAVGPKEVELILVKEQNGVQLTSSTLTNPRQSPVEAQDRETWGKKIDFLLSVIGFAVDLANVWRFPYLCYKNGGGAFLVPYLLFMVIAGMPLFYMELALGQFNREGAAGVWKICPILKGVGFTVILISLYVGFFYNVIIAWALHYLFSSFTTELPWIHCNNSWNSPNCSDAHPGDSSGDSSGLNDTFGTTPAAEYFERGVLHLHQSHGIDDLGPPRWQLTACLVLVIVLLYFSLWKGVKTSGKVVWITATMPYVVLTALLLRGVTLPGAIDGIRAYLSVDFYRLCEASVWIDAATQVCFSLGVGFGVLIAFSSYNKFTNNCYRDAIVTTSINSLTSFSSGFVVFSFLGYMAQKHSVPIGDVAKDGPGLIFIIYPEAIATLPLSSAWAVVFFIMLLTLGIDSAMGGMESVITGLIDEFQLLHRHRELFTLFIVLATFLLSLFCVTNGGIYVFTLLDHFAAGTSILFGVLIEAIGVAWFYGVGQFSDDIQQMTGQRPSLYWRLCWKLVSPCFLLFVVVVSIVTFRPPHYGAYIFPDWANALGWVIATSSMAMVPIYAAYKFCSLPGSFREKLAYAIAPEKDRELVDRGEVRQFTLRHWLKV

Row | Compound | elimination half-life [1] [h] | time to peak plasma concentrations [1] [h] | oral availability [2] | affinity and selectivity for the dopamine transporter (dopamine transporter) | effect on cocaine self-administration ([3]; rats) | lever presses for a cocaine infusion after pre-treatment ([3]; rats pre-treated with 53.8 mg/kg, oral, decreased from 150±20 lever presses, unpublished observations, Dr. Susan Schenck) [lever presses]
1 | COC(=O)C(c1ccccc1)C1CCCCN1 (stereo not drawn) [Methylphenidate, methylphenidate] | 2 to 3 | 1 to 3 | – | – | – | –
2 | Cc1ccc(-c2cc([C@@H]3C4CCC(C[C@@H]3c3ccc(Cl)cc3)N4C)on2)cc1 (stereo partly drawn) [RTI-336] | – | – | orally available | high affinity and selectivity | inhibits cocaine self-administration | 36±14
